Results reported in patent publication US20240391923A1, “METHIONINE ADENOSYLTRANSFERASE 2A INHIBITOR FOR TREATING MTAP DELETION-TYPE CANCER” (SUZHOU GENHOUSE BIO CO., LTD., priority 2022, published 2024).
Like-named read-outs stand apart in the source and are kept apart here.

How the values were obtained:
[1] = test system: SDMA in HCT116-MTAP-knockout cell line; experiment: Cell symmetric dimethylarginine (SDMA) test, In-cell Western, HCT116-MTAP-knockout; assay type: cell-based; settings: Homo sapiens, 96 h
[2] = test system: SDMA in human colon cancer cell line HCT116; experiment: Cell symmetric dimethylarginine (SDMA) test, In-cell Western, HCT116 (MTAP wild-type); assay type: cell-based; settings: Homo sapiens, HCT-116, 96 h
Method in brief: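 HCT116 cells treated 4 days at 37° C with compound, top concentration 6 μM, 1:4 dilutions, 6 points, versus DMSO. Fixed cells stained for SDMA with DRAQ5 normalisation; 800/700 nm ratio after background subtraction fitted by non-linear regression for IC50.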

[3] = test system: DOHH-2 cell strain; experiment: Tumor cell proliferation inhibition assay (CellTiter-Glo), DOHH-2; assay type: cell-based; settings: Homo sapiens, 120 h, DOHH-2 cells, 5-day treatment
Experimental: (§1) After the HCT116-MTAP-knockout (−/−) cell strain, the HCT116-MTAP wild-type(+/+)-cell strain, the DOHH-2 cell strain, or the Hut-78 cell strain was treated with the test compound for 5 days, the ATP level was measured using a CellTiter-Glo kit of Promega to evaluate the inhibition of the test compound against the growth of the tumor cell strain.
(§2) In the present application, the HCT116-MTAP-knockout (−/−) cell strain, the HCT116-MTAP wild-type (+/+)-cell strain, the DOHH-2 cell strain, or the Hut-78 cell strain was seeded into a 96-well cell culture plate at an appropriate cell density. After 24 h, the cells were treated using the test compounds diluted 1:3 fold at the highest concentration of 10 μM for 10 gradients, and a DMSO treatment group was set up separately. The cells were cultured in a 37° C./5% CO2 incubator for 5 days.

[4] = target: MAT2A recombinant protein (Homo sapiens, UniProt P31153); experiment: MAT2A inhibitory activity (malachite green colorimetric enzyme assay); assay type: biochemical
MAT2A recombinant protein, sequence (P31153 whole entry): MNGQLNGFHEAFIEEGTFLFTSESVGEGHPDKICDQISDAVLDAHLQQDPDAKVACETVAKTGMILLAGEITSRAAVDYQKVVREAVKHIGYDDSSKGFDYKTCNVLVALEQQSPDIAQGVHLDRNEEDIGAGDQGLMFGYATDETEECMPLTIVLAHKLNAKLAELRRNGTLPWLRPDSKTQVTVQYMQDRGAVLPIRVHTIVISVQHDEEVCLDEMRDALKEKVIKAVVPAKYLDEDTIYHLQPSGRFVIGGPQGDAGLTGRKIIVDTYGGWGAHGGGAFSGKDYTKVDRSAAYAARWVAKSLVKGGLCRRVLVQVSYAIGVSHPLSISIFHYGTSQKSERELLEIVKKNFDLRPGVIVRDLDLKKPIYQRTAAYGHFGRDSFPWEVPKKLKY
Method in brief: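 Recombinant human MAT2A with L-methionine and ATP in 50 mM HEPES pH 7.5, 50 mM KCl, 10 mM MgCl2, 10 mM DTT, 60 min at room temperature. Phosphate released detected by malachite green reagent (15 min) at 630 nm. Ten-point 1:3 series from 1000 nM final; IC50 by variable-slope non-linear regression.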

[5] = test system: HCT116-MTAP-knockout (−/−) cell strain; experiment: Tumor cell proliferation inhibition assay (CellTiter-Glo), HCT116-MTAP-knockout (-/-); assay type: cell-based; settings: Homo sapiens, 120 h, HCT116-MTAP-knockout (−/−) cells, 5-day treatment
Method in brief: (§3)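 Cells were seeded, left 24 h, then exposed to test compounds in a 10-point, 1:3 dilution series from 10 μM top concentration alongside a DMSO group. After 5 days at 37° C./5% CO2, growth inhibition was judged from ATP level by CellTiter-Glo luminescence.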

[6] = test system: HCT116-MTAP wild-type (+/+)-cell strain; experiment: Tumor cell proliferation inhibition assay (CellTiter-Glo), HCT116-MTAP wild-type (+/+); assay type: cell-based; settings: Homo sapiens, 120 h, HCT116-MTAP wild-type (+/+) cells, 5-day treatment
Method in brief: as §3

[7] = test system: Hut-78 cell strain; experiment: Tumor cell proliferation inhibition assay (CellTiter-Glo), Hut-78; assay type: cell-based; settings: Hut-78 cells, 5-day treatment
Experimental: as §1, §2

[8] = Pharmacokinetic test in mice (IV and PO); assay type: in vivo; settings: mouse, plasma, BALB/c mice; for half-life: read-out: T½ (converted)
[9] = IC50 score class, read-out: Cell 96 h SDMA Inhibition (HCT116-MTAP−/−) (score)
[10] = read-out: Cell 96 h SDMA Inhibition (HCT116-MTAP−/−)
[11] = IC50 score class, read-out: Cell 96 h SDMA Inhibition (HCT116-MTAP+/+) (score)
[12] = IC50 score, read-out: Tumor cell 5-day relative growth inhibition (DOHH-2) (nM), score
[13] = IC50 value, read-out: Tumor cell 5-day relative growth inhibition (DOHH-2)
[14] = read-out: Cell 96 h SDMA inhibition (HCT116-MTAP+/+)
[15] = IC50 score class, read-out: MAT2A Inhibition (score)
[16] = IC50 score, read-out: Tumor cell 5-day relative growth inhibition (HCT116-MTAP−/−) (nM), score
[17] = IC50 value, read-out: Tumor cell 5-day relative growth inhibition (HCT116-MTAP−/−)
[18] = IC50 score, read-out: Tumor cell 5-day relative growth inhibition (HCT116-MTAP+/+) (nM), score
[19] = IC50 value, read-out: Tumor cell 5-day relative growth inhibition (HCT116-MTAP+/+)
[20] = Homo sapiens, HuT78, 120 h, IC50 score, read-out: Tumor cell 5-day relative growth inhibition (Hut-78) (nM), score
[21] = Homo sapiens, HuT78, 120 h, IC50 value, read-out: Tumor cell 5-day relative growth inhibition (Hut-78)

| Structure (SMILES) | IC50 [1, 9] [nM] | IC50 [1, 10] [nM] | IC50 [2, 11] [nM] | IC50 [3, 12] [nM] | IC50 [3, 13] [nM] | IC50 [2, 14] [nM] | IC50 [4, 15] [nM] | IC50 ([4]; read-out: MAT2A Inhibition) [nM] | IC50 [5, 16] [nM] | IC50 [5, 17] [nM] | IC50 [6, 18] [nM] | IC50 [6, 19] [nM] | IC50 [7, 20] [nM] | IC50 [7, 21] [nM] | further results |
| --- | --- | --- | --- | --- | --- | --- | --- | --- | --- | --- | --- | --- | --- | --- | --- |
| CCn1cc2c(n1)c(=O)n(-c1cnccn1)c1cc(Cl)ccc21 [Compound B6] | > 3000 | 3570 | 200 to 1000 | ≥ 2000 | 16900 |  |  |  |  |  |  |  |  |  |  |
| CCn1cc2c(n1)c(=O)n(-c1cccc(O)c1)c1cc(Cl)ccc21 [Compound B8] | 200 to 1000 | 271 | 1000 to 3000 | 500 to 2000 | 1000 | 2100 |  |  |  |  |  |  |  |  |  |
| CCn1cc2c(n1)c(=O)n(-c1cccc(C#N)c1)c1cc(Cl)ccc21 [Compound B9] | 200 to 1000 | 328 | 1000 to 3000 | 500 to 2000 | 1090 | 2350 |  |  |  |  |  |  |  |  |  |
| CCn1cc2c(n1)c(=O)n(Cc1c[nH]cn1)c1cc(Cl)ccc21 [Compound B18] | > 3000 | 8410 |  | ≥ 2000 | > 2000 |  | 100 to 1000 | 149 |  |  |  |  |  |  |  |
| O=c1c2nn(CCO)cc2c2ccc(Cl)cc2n1-c1cccnc1 [Compound B46] | 200 to 1000 | 236 | > 3000 | ≥ 2000 | 6030 | 19400 |  |  |  |  |  |  |  |  |  |
| Cn1cc2c(n1)c(=O)n(-c1cccnc1)c1cc(C3CC3)ccc21 [Compound B70] | 200 to 1000 | 375 | 1000 to 3000 | 500 to 2000 | 1930 | 1550 |  |  |  |  |  |  |  |  |  |
| Cn1cc2c(n1)c(=O)n(-c1cccnc1)c1nc(C3CC3)ccc21 [Compound B71] | 200 to 1000 | 203 | 1000 to 3000 | 500 to 2000 | 1290 | 1270 |  |  |  |  |  |  |  |  |  |
| O=c1c2nn(C3CC3)cc2c2ccc(C(F)(F)F)nc2n1-c1cccnc1 [Compound B215] | 200 to 1000 | 210 | 1000 to 3000 |  |  | 1180 | < 100 | 21.7 | < 500 | 104 | ≥ 2000 | 4200 | < 500 | 310 |  |
| Cn1cc2c(n1)c(=O)n(-c1cncc(O)c1)c1nc(C(F)(F)F)ccc21 [Compound B221] | 1000 to 3000 | 2540 | 200 to 1000 |  |  | 475 | < 100 | 52.7 |  |  | ≥ 2000 | > 2000 | ≥ 2000 | 10600 |  |
| Cn1cc2c(n1)c(=O)n(-c1cnccn1)c1nc(C(F)(F)F)ccc21 [Compound B227] | > 3000 | 4690 | > 3000 |  |  | 3030 | < 100 | 51.8 |  |  | ≥ 2000 | ≥ 2000 | ≥ 2000 | 4710 |  |
| Cn1cc2c(n1)c(=O)n(-c1ccc(F)c(O)c1)c1nc(C(F)(F)F)ccc21 [Compound B228] | 1000 to 3000 | 2910 | > 3000 |  |  | 3220 | < 100 | 37.3 |  |  | ≥ 2000 | > 2000 | ≥ 2000 | 3450 |  |

Now from value to compound, other results behind:

| IC50 [1, 9] [nM] | IC50 [1, 10] [nM] | IC50 [2, 11] [nM] | IC50 [3, 12] [nM] | IC50 [3, 13] [nM] | IC50 [2, 14] [nM] | IC50 [4, 15] [nM] | IC50 ([4]; read-out: MAT2A Inhibition) [nM] | IC50 [5, 16] [nM] | IC50 [5, 17] [nM] | IC50 [6, 18] [nM] | IC50 [6, 19] [nM] | IC50 [7, 20] [nM] | IC50 [7, 21] [nM] | Structure (SMILES) | further results |
| --- | --- | --- | --- | --- | --- | --- | --- | --- | --- | --- | --- | --- | --- | --- | --- |
| < 200 | 118 | 1000 to 3000 |  |  | 1520 | < 100 | 18 | < 500 | 104 | ≥ 2000 | 3570 | < 500 | 83 | O=c1c2nn(C(F)F)cc2c2ccc(Cl)cc2n1-c1cccnc1 [Compound B55] |  |
| < 200 | 5.2 | < 200 |  |  | 158 | < 100 | 29.4 | < 500 | 5.14 | < 500 | 293 | < 500 | 27.2 | Cc1ncccc1-n1c(=O)c2n[nH]cc2c2ccc(C(F)(F)F)nc21 [Compound B96] |  |
| < 200 | 12.3 | 200 to 1000 |  |  | 561 | < 100 | 39.7 | < 500 | 13.6 | < 500 | 488 | < 500 | 49.2 | Cc1ncccc1-n1c(=O)c2nn(C)c(C)c2c2ccc(C(F)(F)F)nc21 [Compound B189] |  |
| < 200 | 29.3 | 1000 to 3000 |  |  | 1290 | < 100 | 41 | < 500 | 35.6 | 500 to 2000 | 942 | < 500 | 95.6 | Cc1ncccc1-n1c(=O)c2nn(CC3CC3)cc2c2ccc(C(F)(F)F)nc21 [Compound B191] |  |
| < 200 | 48.5 | 200 to 1000 |  |  | 567 | < 100 | 17.1 | < 500 | 31.5 | 500 to 2000 | 745 | < 500 | 40.2 | Cc1c2c(nn1C)c(=O)n(-c1cccnc1)c1nc(C(F)(F)F)ccc21 [Compound B198] | AUC ([8]; IV 2 mg/kg): 8.7 µM·h; clearance ([8]; IV 2 mg/kg): 10.7 mL/min/kg; bioavailability ([8]; IV 2 mg/kg, PO 10 mg/kg): 150%; half-life ([8]; IV 2 mg/kg): 40.9 min; Vd ([8]; IV 2 mg/kg, read-out: Vz): 0.6 L/kg; AUC ([8]; PO 10 mg/kg): 65.2 µM·h; half-life ([8]; PO 10 mg/kg): 55.1 min |
| < 200 | 184 | 200 to 1000 |  |  | 899 | < 100 | 53.7 | < 500 | 181 | ≥ 2000 | 53800 | < 500 | 323 | O=c1c2nn(CC3CC3)cc2c2ccc(C(F)(F)F)nc2n1-c1cccnc1 [Compound B199] |  |
| < 200 | 39.5 | > 3000 |  |  | > 3000 | < 100 | 77.9 |  |  | ≥ 2000 | 3990 | < 500 | 130 | COc1ccc(-n2cc3c(n2)c(=O)n(-c2ccccc2)c2nc(C(F)(F)F)ccc32)cc1 [Compound B218] |  |
| < 200 | 16.5 | 200 to 1000 |  |  | 919 | < 100 | 30.9 |  |  | 500 to 2000 | 1030 | < 500 | 27.7 | Cc1ncccc1-n1c(=O)c2nn(C3CC3)cc2c2ccc(Cl)cc21 [Compound B226] |  |
| < 200 | 6.35 | 200 to 1000 |  |  | 250 | < 100 | 13.4 | < 500 | 15.5 | < 500 | 135 | < 500 |  | Cc1ncccc1-n1c(=O)c2nn(C)cc2c2ccc(Cl)cc21 [Compound B233] | IC50 ([7]; IC50 value, read-out: Tumor cell 5-day relative growth inhibition (Hut-78)): 8.05 nM |
